# Experimental data reported in patent US10752587B2, “Homobispiperidinyl derivatives as liver X receptor beta agonists, compositions and their use” (Merck Sharp & Dohme Corp., priority 2015, dated 2020).
# Tests used:
# [1] = target: T1, glutathione-S-transferase (GST) tagged LXRbeta LBD (ligand binding domain) (Homo sapiens, UniProt P55055); experiment: LanthaScreen TR-FRET Liver X Receptor Coactivator Assay, co-activator recruitment to LXRbeta LBD; type: biochemical; details: for Emax: efficacy at max dose, in relation to reference dual agonist T0901317, read-out: LXR beta Activity @ max dose (%); for EC50: potency (Inflection Point, IP), co-activator recruitment to LXRbeta LBD, in relation to T0901317, read-out: LXR beta IP
# T1 construct: purchased Invitrogen pv4658.pps
# T1 sequence (P55055 222-460 limits assumed): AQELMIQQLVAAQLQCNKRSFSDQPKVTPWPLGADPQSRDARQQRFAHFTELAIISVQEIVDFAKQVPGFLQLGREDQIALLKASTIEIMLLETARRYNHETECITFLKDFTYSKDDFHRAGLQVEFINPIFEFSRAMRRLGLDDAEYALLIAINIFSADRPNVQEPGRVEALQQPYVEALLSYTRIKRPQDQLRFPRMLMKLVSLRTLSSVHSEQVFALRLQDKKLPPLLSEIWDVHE
# Method in brief: (§1)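 TR-FRET coactivator recruitment; compound + LBD, then fluorescein-coactivator peptide/Tb-anti-GST Ab mix; RT incubation; IP and Emax vs T0901317.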
# [2] = target: T2, glutathione-S-transferase (GST) tagged LXRalpha LBD (ligand binding domain) (Homo sapiens, UniProt Q13133); experiment: LanthaScreen TR-FRET Liver X Receptor Coactivator Assay, co-activator recruitment to LXRalpha LBD; type: biochemical; details: for Emax: efficacy at max dose, in relation to reference dual agonist T0901317, read-out: LXR alpha Activity @ max dose (%); for LXR alpha IP (nM) / EC50: potency (Inflection Point, IP), co-activator recruitment to LXRalpha LBD, in relation to T0901317; for EC50: read-out: LXR alpha IP
# T2 construct: purchased Invitrogen pv4655
# T2 sequence (Q13133 209-447 limits assumed): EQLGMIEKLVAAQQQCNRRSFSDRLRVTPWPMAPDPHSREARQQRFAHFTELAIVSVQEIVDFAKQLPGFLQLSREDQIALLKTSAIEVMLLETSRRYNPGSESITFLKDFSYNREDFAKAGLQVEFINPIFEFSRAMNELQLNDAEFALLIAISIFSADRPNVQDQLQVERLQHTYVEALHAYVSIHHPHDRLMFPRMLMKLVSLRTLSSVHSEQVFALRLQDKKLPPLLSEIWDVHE
# Method in brief: as §1
Structure (SMILES),Emax [1],EC50 [1],Emax [2],LXR alpha IP (nM) [2],EC50 [2]
"CN(C)C(=O)c1ccc(N2CCC(CC3CCN(C(=O)[C@](O)(c4cccc(OC(F)(F)F)c4)C(F)(F)F)CC3)CC2)cc1Cl [Example 2-91, 2-chloro-N,N-dimethyl-4-{4-[(1-{(2R)-3,3,3-trifluoro-2-hydroxy-2-[3-(trifluoro-methoxy)phenyl]propanoyl}piperidin-4-yl)methyl]piperidin-1-yl}benzamide]",58%,23 nM,20%,,199 nM
"CC[C@](O)(C(=O)N1CCC(CC2CCN(c3ccc(C(=O)N(C)C)c(Cl)c3)CC2)CC1)c1ccccc1 [Example 2-110, 2-chloro-4-[4-({1-[(2R)-2-hydroxy-2-phenylbutanoyl]piperidin-4-yl}methyl)piperidin-1-yl]-N,N-dimethyl-benzamide]",50%,54 nM,17%,NO IP,
"CN(C)C(=O)c1ccc(N2CCC(CC3CCN(C(=O)[C@](O)(c4cc(Cl)cc(Cl)c4)C(F)(F)F)CC3)CC2)cc1 [Example 2-133, 4-[4-({1-[(2R)-2-(3,5-dichloro-phenyl)-3,3,3-trifluoro-2-hydroxy-propanoyl]piperidin-4-yl}methyl)piperidin-1-yl]-N,N-dimethyl-benzamide]",54%,36 nM,6%,NO IP,
"CN(C)C(=O)c1ccc(N2CCC(OC3CCN(C(=O)C4(C(F)(F)F)CCCCC4)CC3)CC2)cc1Cl [Example 2-19, 2-chloro-N,N-dimethyl-4-{4-[(1-{[1-(trifluoromethyl)cyclohexyl]carbonyl}piperidin-4-yl)oxy]piperidin-1-yl}benzamide]",75%,206 nM,23%,,1810 nM
"CCc1cccc([C@@](O)(C(=O)N2CCC(CC3CCN(c4ccc(C(=O)N(C)C)c(C)c4)CC3)CC2)C(F)(F)F)c1 [Example 2-156, 4-[4-({1-[(2R)-2-(3-ethyl-phenyl)-3,3,3-trifluoro-2-hydroxy-propanoyl]piperidin-4-yl}methyl)piperidin-1-yl]-N,N,2-trimethyl-benzamide]",42%,21 nM,12%,NO IP,
"CCOc1cccc([C@@](O)(C(=O)N2CCC(CC3CCN(c4ccc(C(=O)N(C)C)c(Cl)c4)CC3)CC2)C(F)(F)F)c1 [Example 2-92, 2-chloro-4-[4-({1-[(2R)-2-(3-ethoxyphenyl)-3,3,3-trifluoro-2-hydroxy-propanoyl]piperidin-4-yl}methyl)piperidin-1-yl]-N,N-dimethyl-benzamide]",56%,12 nM,3%,NO IP,
"CN(C)C(=O)c1ccc(N2CCC(CC3CCN(C(=O)[C@](N)(c4ccccc4)C(F)(F)F)CC3)CC2)cc1Cl (stereo in doubt) [Example 2-101, 4-[4-({1-[2-amino-3,3,3-trifluoro-2-phenyl-propanoyl]piperidin-4-yl}methyl)piperidin-1-yl]-2-chloro-N,N-dimethyl-benzamide]",106%,114 nM,21%,,1770 nM
"CN(Cc1cncs1)C(=O)c1ccc(N2CCC(CC3CCN(C(=O)[C@](O)(c4ccccc4)C(F)(F)F)CC3)CC2)cc1Cl [Example 4-20, 2-chloro-N-methyl-N-(1,3-thiazol-5-ylmethyl)-4-[4-({1-[(2R)-3,3,3-trifluoro-2-hydroxy-2-phenylpropanoyl]piperidin-4-yl}methyl)piperidin-1-yl]benzamide]",63%,95 nM,34%,,541 nM
"Cc1cc(N2CCC(CC3CCN(C(=O)OC(C)(C)C)CC3)CC2)ccc1C(=O)N(C)C [Example 1-2, tert-butyl 4-({1-[4-(dimethylcarbamoyl)-3-methylphenyl]piperidin-4-yl}methyl)piperidine-1-carboxylate]",58%,240 nM,13%,NO IP,
"CN(C)C(=O)c1ncc(N2CCC(CC3CCN(C(=O)C(O)(c4cccc(F)c4)C(F)(F)F)CC3)CC2)cc1Cl (stereo not shown) [Example 2-7, 3-chloro-N,N-dimethyl-5-[4-({1-[3,3,3-trifluoro-2-(3-fluorophenyl)-2-hydroxy-propanoyl]piperidin-4-yl}methyl)piperidin-1-yl]pyridine-2-carboxamide]",80%,17 nM,30%,,464 nM
"CN(C)C(=O)c1ccc(N2CCC(OC3CCN(C(=O)[C@](O)(c4cc(Cl)cc(Cl)c4)C(F)(F)F)CC3)CC2)cc1Cl [Example 2-46, 2-chloro-4-[4-({1-[(2R)-2-(3,5-dichloro-phenyl)-3,3,3-trifluoro-2-hydroxy-propanoyl]piperidin-4-yl}oxy)piperidin-1-yl]-N,N-dimethyl-benzamide]",102%,9 nM,31%,,216 nM
"CCOc1cccc([C@@](O)(C(=O)N2CCC(CC3CCN(c4ccc(C(=O)N(C)C)cc4)CC3)CC2)C(F)(F)F)c1 [Example 2-145, 4-[4-({1-[(2R)-2-(3-ethoxy-phenyl)-3,3,3-trifluoro-2-hydroxy-propanoyl]piperidin-4-yl}methyl)piperidin-1-yl]-N,N-dimethyl-benzamide]",54%,73 nM,4%,NO IP,
"CN(C)C(=O)c1ccc(N2CCC(CC3CCN(C(=O)[C@@](O)(c4cccc(C(F)(F)F)c4)C(F)(F)F)CC3)CC2)cc1Cl [Example 2-33, 2-chloro-N,N-dimethyl-4-{4-[(1-{(2S)-3,3,3-trifluoro-2-hydroxy-2-[3-(trifluoromethyl)phenyl]propanoyl}piperidin-4-yl)methyl]piperidin-1-yl}benzamide]",75%,722 nM,5%,NO IP,

# The next lines start with the values.
Emax [1],EC50 [1],Emax [2],LXR alpha IP (nM) [2],EC50 [2],Structure (SMILES)
51%,6 nM,8%,NO IP,,"CCOc1cccc([C@@](O)(C(=O)N2CCC(CC3CCN(c4ccc(C(=O)N(C)C)c(Cl)n4)CC3)CC2)C(F)(F)F)c1 [Example 7-92, 2-chloro-6-[4-({1-[(2R)-2-(3-ethoxyphenyl)-3,3,3-trifluoro-2-hydroxypropanoyl]piperidin-4-yl}methyl)piperidin-1-yl]-N,N-dimethylpyridine-3-carboxamide]"
120%,91 nM,50%,,3790 nM,"CNC(=O)c1ccc(N2CCC(OC3CCN(C(=O)C(O)(c4cccc(F)c4)C(F)(F)F)CC3)CC2)cc1Cl (stereo not shown) [Example 7-30, 2-chloro-N-methyl-4-[4-({1-[3,3,3-trifluoro-2-(3-fluorophenyl)-2-hydroxypropanoyl]piperidin-4-yl}oxy)piperidin-1-yl] benzamide]"
104%,9 nM,54%,,94 nM,"CNC(=O)c1ccc(N2CCC(CC3CCN(C(=O)C(O)(c4cc(F)cc(F)c4)C(F)(F)F)CC3)CC2)cc1Cl (stereo not shown) [Example 7-122, 2-chloro-4-[4-({1-[2-(3,5-difluorophenyl)-3,3,3-trifluoro-2-hydroxypropanoyl]piperidin-4-yl}methyl)piperidin-1-yl]-N-methylbenzamide]"
122%,31 nM,47%,,1680 nM,"CN(C)C(=O)c1ccc(N2CCC(CC3CCN(C(=O)C(N)(c4ccccc4)C(F)(F)F)CC3)CC2)nc1Cl (stereo not shown) [Example 7-103, 6-(4-{[1-(2-amino-3,3,3-trifluoro-2-phenylpropanoyl)piperidin-4-yl]methyl}piperidin-1-yl)-2-chloro-N,N-dimethylpyridine-3-carboxamide]"
70%,14 nM,7%,NO IP,,"COc1cccc([C@@](O)(C(=O)N2CCC(SC3CCN(c4ccc(C(=O)N(C)C)c(Cl)n4)CC3)CC2)C(F)(F)F)c1 [Example 9-2, 2-chloro-N,N-dimethyl-6-[4-({1-[(2R)-3,3,3-trifluoro-2-hydroxy-2-(3-methoxyphenyl)-propanoyl]piperidin-4-yl}sulfanyl)-piperidin-1-yl]-pyridine-3-carboxamide]"
96%,3 nM,45%,,65 nM,"CN(C)C(=O)c1ccc(N2CCC(CC3CCN(C(=O)[C@](O)(c4cc(F)cc(Cl)c4)C(F)(F)F)CC3)CC2)nc1Cl [Example 7-112, 2-chloro-6-[4-({1-[(2R)-2-(3-chloro-5-fluorophenyl)-3,3,3-trifluoro-2-hydroxypropanoyl]piperidin-4-yl}methyl)piperidin-1-yl]-N,N-dimethylpyridine-3-carboxamide]"
